These results are taken from PMC12292862 (Biomedicines, 2025).

Entries after “also recorded” stand apart in the source; their conditions may differ.

For one data set, the system named is rat paw tissue. Put plainly: Histomorphometry lesion scores of paw tissue sections. Conditions: vs carrageenan group; for inflammation scores: Figure 11A; for total lesion scores: Figure 11D. It is filed as in vivo.
The next data set relates to egg albumin. Put plainly: Egg albumin protein denaturation inhibition assay. Conditions: 50–1000 µg/mL; Figure 2B; result in words. The procedure:
To determine the egg albumin protein denaturation inhibition assay, the previously mentioned approach was used. Egg albumin (0.2 mL), 2.8 mL of phosphate-buffered saline (pH 6.4), and 2 mL of synthesized compound solutions in various concentrations were added to 5 mL of reaction mixture for this experiment. […] The reaction solutions were heated to 37 °C for 15 min, then to 70 °C for 5 min. After cooling, the absorbance of the solutions was measured at 660 nm. The experiment was conducted in triplicate, and the percentage inhibition of denaturation of the protein was calculated using the following formula:%Inhibition = ((Absorbance Control − Absorbance Sample)/(Absorbance control)) × 100.

The target of a further data set is bovine serum albumin (Bos taurus, UniProt P02769). As to the kind of experiment: Bovine serum albumin denaturation inhibition assay. As to conditions: 50–1000 µg/mL; Figure 2A; result in words. The procedure: A bovine serum albumin assay was conducted using the previously mentioned technique. Synthesized compounds were dissolved in 2% Tween 80 saline solution (v/v) to create a solution at different doses of 50, 100, 200, 400, 800, and 1000 μg/mL. To prepare the test control sample (0.5 mL), 0.45 mL of 5% w/v bovine serum albumin was dissolved in 0.05 mL of distilled water. A product control solution was made by mixing 0.45 mL of Tween 80 with 0.50 mL of the test sample. 0.45 mL of bovine serum albumin and 0.50 mL of synthesized compounds made up the […] test solution. […] A pH of 6.3 was adjusted using 1 N HCl. Every solution was heated for 3 min at 60 °C after being kept at 37 °C for 20 min. Samples were then allowed to cool, and their absorbance at 660 nm was measured. Three duplicates of the procedure were carried out, and the percentage inhibition of denaturation of the bovine serum albumin was calculated using the following formula:%Inhibition = ((Absorbance Control − Absorbance Sample)/(Absorbance control)) × 100.
Sequence of bovine serum albumin (P02769 25-607): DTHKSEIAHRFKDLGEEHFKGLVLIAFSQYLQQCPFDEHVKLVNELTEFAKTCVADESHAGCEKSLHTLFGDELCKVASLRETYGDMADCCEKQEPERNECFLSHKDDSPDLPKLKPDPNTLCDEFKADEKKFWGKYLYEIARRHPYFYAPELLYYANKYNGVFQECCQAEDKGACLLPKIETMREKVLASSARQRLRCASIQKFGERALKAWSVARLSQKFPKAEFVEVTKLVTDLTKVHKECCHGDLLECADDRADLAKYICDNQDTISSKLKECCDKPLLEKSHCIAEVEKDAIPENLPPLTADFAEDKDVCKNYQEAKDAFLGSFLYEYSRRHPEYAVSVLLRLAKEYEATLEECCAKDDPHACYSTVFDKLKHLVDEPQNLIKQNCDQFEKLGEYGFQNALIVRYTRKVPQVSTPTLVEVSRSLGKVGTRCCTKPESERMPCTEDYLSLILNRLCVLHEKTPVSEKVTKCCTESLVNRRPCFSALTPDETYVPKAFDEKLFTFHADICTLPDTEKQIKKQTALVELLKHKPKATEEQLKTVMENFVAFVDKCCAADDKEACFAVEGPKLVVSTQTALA

On to `NC1=NC2(CCCCCC2)n2nc(C(=O)Nc3ccc(S(N)(=O)=O)cc3)nc2N1` [Compound 1, 5′-Amino-N-(4-sulfamoylphenyl). -1′H-spiro[cycloheptane-1,7′-[1,2,4]triazolo[1,5-a][1,3,5] -triazine] -2′-carboxamide], for which, in the data set with rat paw tissue, the inflammation scores result is “significantly reduced inflammation scores” and the total lesion scores result was “reduced total lesion scores significantly”.
For the molecule `CC1(C)CC(=O)CC2(C1)N=C(N)Nc1nc(C(=O)Nc3ccc(S(N)(=O)=O)cc3)nn12` (centres unmarked) [Compound 2], the “inhibition of egg albumin protein denaturation” value in the data set on egg albumin is on record as “moderate inhibition; also recorded: superior percentage inhibition of protein denaturation”. At bovine serum albumin, the “inhibition of bovine serum albumin denaturation” value was “moderate inhibition; also recorded: superior percentage inhibition of protein denaturation”.
As for `NC1=NC2(c3ccccc3Cc3ccccc32)n2nc(C(=O)Nc3ccc(S(N)(=O)=O)cc3)nc2N1` [Compound 3], the “inhibition of egg albumin protein denaturation” value in the data set with egg albumin was “highest protective effect; also recorded: superior percentage inhibition of protein denaturation”. In addition, in the data set on rat paw tissue, the inflammation scores entry is “approaching those of the normal control group” and the total lesion scores result is “reduced total lesion scores significantly; also recorded: comparable to the normal control group”. Besides, the inflammation scores entry with rat paw tissue (listed as compound 3) was “significantly reduced inflammation scores”. Also, the edema scores result with rat paw tissue (Figure 11B) is on record as “comparable to those of the control group”. Moreover, in the data set with rat paw tissue (Figure 11C), the vascular alteration scores result is given as “near-normal levels”. In addition, the “inhibition of bovine serum albumin denaturation” value against bovine serum albumin was “highest protective effect; also recorded: superior percentage inhibition of protein denaturation”.
